Eleven compounds from article PMC7037682, “Herb–Drug Interaction of Red Ginseng Extract and Ginsenoside Rc with Valsartan in Rats” (Molecules, 2020) can be followed below.

Where two headings read alike, the source gives them in different places.

The target of data set [1] is T1, OAT1 (Homo sapiens, UniProt Q4U2R8).
T1 sequence (Q4U2R8 1-563): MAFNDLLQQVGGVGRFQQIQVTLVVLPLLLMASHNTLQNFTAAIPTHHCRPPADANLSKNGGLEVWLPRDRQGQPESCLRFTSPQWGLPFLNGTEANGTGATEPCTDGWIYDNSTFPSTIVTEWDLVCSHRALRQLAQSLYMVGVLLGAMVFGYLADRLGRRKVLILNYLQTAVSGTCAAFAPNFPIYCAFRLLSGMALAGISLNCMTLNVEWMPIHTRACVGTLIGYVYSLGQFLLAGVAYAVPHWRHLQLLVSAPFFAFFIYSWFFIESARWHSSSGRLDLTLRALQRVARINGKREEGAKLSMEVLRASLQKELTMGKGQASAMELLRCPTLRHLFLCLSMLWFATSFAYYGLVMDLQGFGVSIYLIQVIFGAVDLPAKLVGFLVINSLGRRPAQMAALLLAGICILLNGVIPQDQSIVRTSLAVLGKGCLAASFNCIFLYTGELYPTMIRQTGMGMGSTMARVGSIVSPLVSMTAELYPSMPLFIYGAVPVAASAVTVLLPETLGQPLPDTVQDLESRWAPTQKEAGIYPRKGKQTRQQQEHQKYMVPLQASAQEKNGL
In words: Inhibition of OAT1-mediated [3H]PAH uptake in HEK293-OAT1 cells. On the procedure: (§1) HEK293 cells overexpressing the OCT1, OCT2, OAT1, OAT3, OATP1B1, and OATP1B3 transporters (HEK293-OCT1, -OCT2, -OAT1, -OAT3, -OATP1B1, and -OATP1B3, respectively) and HEK293-mock cells (Corning Life Sciences; Woburn, MA, USA) were used and characterized as previously described.
(§2) HEK293 cells overexpressing drug transporters and HEK293-mock cells were seeded in poly-D-lysine-coated 96-well plates at a density of 10^5 cells/well and were cultured in DMEM supplemented with 10% FBS, 5 mM non-essential amino acids, and 2 mM sodium butyrate in a humidified atmosphere with 8% CO2 at 37 °C.
(§3) Then the uptake of probe substrates into HEK293-mock cells and HEK293-OCT1, -OCT2, -OAT1, -OAT3, -OATP1B1, and -OATP1B3 cells in the presence and absence of typical inhibitor or each ginsenoside with previously described concentration range was measured for 5 min. Immediately after placing the plates on ice, the cells were washed three times with 100 μL of ice-cold HBSS, followed by lysing with 50 μL of 10% SDS solution and mixing with 150 μL of Optiphase cocktail solution (Perkin Elmer Inc., Boston, MA, USA). The radioactivity of the probe substrates in the cells was determined using a liquid scintillation counter.
(§4) In the inhibition studies, the uptake rate of substrate by HEK293 cells overexpressing the respective transporters was used as the control (100%) and the uptake rate of substrates in the presence of typical inhibitors or ginsenosides expressed as a percentage of the control. The inhibition data were fitted to an inhibitory effect model using Sigma plot (version 10.0; Systat Software Inc., San Jose, CA, USA). IC50 value indicated the half-maximal inhibitory concentration of the inhibitor.

Data set [2] deals with T2, OATP1B3 (Homo sapiens, UniProt Q9NPD5).
T2 sequence (Q9NPD5 1-702): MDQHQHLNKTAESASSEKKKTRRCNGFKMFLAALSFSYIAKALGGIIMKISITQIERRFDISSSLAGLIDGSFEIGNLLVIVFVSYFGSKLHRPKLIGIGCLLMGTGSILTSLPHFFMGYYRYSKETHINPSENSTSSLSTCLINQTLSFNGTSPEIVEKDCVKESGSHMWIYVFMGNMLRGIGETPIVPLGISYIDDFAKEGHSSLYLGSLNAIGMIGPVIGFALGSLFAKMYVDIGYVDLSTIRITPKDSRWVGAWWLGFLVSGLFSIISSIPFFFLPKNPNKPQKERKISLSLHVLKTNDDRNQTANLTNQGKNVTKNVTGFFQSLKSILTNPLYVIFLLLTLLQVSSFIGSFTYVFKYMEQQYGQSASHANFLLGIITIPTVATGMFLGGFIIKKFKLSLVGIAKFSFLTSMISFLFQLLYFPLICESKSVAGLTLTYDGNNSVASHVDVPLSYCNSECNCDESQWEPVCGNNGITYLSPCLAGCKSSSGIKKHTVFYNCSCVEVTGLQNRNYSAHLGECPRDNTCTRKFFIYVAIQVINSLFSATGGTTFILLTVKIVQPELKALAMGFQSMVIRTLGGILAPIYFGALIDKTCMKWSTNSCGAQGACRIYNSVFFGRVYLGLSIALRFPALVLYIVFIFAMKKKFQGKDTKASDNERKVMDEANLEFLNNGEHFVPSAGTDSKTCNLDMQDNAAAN
In words: Inhibition of OATP1B3-mediated [3H]estradiol-17β-D-glucuronide uptake in HEK293-OATP1B3 cells. The protocol: as §1, §2
as §3, with “To examine the effects of ginsenosides and typical inhibitors on transporter activity, aliquots (100 μL) of HBSS containing the probe substrate and ginsenosides or typical inhibitors were added to the cells after aspirating pre-incubated HBSS. The concentrations and probe substrates were as follows: 0.1 μM [^3H]MPP^+ for OCT1 and OCT2, 0.1 μM [^3H]PAH for OAT1, 0.1 μM [^3H]ES for OAT3 and OATP1B1, and 0.1 μM [^3H]EG for OATP1B3. […] Then” for “Then”
as §4

Data set [3] deals with T3, OCT1 (Homo sapiens, UniProt O15245).
T3 sequence (O15245 1-554): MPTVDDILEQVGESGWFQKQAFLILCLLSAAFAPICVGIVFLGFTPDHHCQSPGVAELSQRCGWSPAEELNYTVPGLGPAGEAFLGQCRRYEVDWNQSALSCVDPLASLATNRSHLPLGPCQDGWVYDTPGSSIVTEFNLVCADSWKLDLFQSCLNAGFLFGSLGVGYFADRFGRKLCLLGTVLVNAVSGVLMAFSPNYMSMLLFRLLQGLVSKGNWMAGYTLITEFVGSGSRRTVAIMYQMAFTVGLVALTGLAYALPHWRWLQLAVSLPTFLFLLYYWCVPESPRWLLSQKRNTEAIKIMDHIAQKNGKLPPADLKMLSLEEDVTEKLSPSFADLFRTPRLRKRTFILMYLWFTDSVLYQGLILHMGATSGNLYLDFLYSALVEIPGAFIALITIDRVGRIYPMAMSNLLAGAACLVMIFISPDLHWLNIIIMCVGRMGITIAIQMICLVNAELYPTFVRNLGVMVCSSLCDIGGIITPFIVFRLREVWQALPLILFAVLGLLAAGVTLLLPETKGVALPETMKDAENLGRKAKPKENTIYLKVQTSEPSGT
In words: Inhibition of OCT1-mediated [3H]MPP+ uptake in HEK293-OCT1 cells. The protocol: as §1, §2
as §3, with “To examine the effects of ginsenosides and typical inhibitors on transporter activity, aliquots (100 μL) of HBSS containing the probe substrate and ginsenosides or typical inhibitors were added to the cells after aspirating pre-incubated HBSS. The concentrations and probe substrates were as follows: 0.1 μM [^3H]MPP^+ for OCT1 and OCT2, 0.1 μM [^3H]PAH for OAT1, 0.1 μM [^3H]ES for OAT3 and OATP1B1, and 0.1 μM [^3H]EG for OATP1B3. […] Then” for “Then”
as §4

[4] abbreviates: HEK293-OATP1B3, 0.1 μM [3H]EG uptake, 5 min.
The mark [5] stands for this setting: read-out: IC50 OAT1, HEK293-OAT1, 0.1 μM [3H]PAH uptake, 5 min.
[6] abbreviates: read-out: IC50 OATP1B3, HEK293-OATP1B3, 0.1 μM [3H]EG uptake, 5 min.
Where [7] appears, read: read-out: IC50 OCT1, HEK293-OCT1, 0.1 μM [3H]MPP+ uptake, 5 min.

Regarding `CC(C)=CCC[C@](C)(O[C@@H]1O[C@H](CO[C@@H]2O[C@@H](CO)[C@H](O)[C@H]2O)[C@@H](O)[C@H](O)[C@H]1O)[C@H]1CC[C@]2(C)[C@@H]1[C@H](O)C[C@@H]1[C@@]3(C)CC[C@H](O[C@@H]4O[C@H](CO)[C@@H](O)[C@H](O)[C@H]4O[C@@H]4O[C@H](CO)[C@@H](O)[C@H](O)[C@H]4O)C(C)(C)[C@@H]3CC[C@]12C` [Rc, ginsenoside Rc], the half-inhibitory concentration (IC50) is greater than 100 µM in data set [1], 1.36 µM in data set [2] and greater than 100 µM in data set [3].
Take `CC(C)=CCC[C@](C)(O[C@@H]1O[C@H](CO)[C@@H](O)[C@H](O)[C@H]1O)[C@H]1CC[C@]2(C)[C@@H]1[C@H](O)C[C@@H]1[C@@]3(C)CC[C@H](O[C@@H]4O[C@H](CO)[C@@H](O)[C@H](O)[C@H]4O[C@@H]4O[C@H](CO)[C@@H](O)[C@H](O)[C@H]4O)C(C)(C)[C@@H]3CC[C@]12C` [Rd, ginsenoside Rd]: the IC50 in data set [1] is greater than 100 µM; in data set [2], 25.8 µM; in data set [3], greater than 100 µM.
Take `CC(C)=CCC[C@](C)(O[C@@H]1O[C@H](CO[C@@H]2OC[C@H](O)[C@H](O)[C@H]2O)[C@@H](O)[C@H](O)[C@H]1O)[C@H]1CC[C@]2(C)[C@@H]1[C@H](O)C[C@@H]1[C@@]3(C)CC[C@H](O[C@@H]4O[C@H](CO)[C@@H](O)[C@H](O)[C@H]4O[C@@H]4O[C@H](CO)[C@@H](O)[C@H](O)[C@H]4O)C(C)(C)[C@@H]3CC[C@]12C` [Rb2, ginsenoside Rb2]: the IC50 was greater than 100 µM in data set [1], 1.76 µM in data set [2] and greater than 100 µM in data set [3].
Regarding `CC(C)=CCC[C@](C)(O[C@@H]1O[C@H](CO)[C@@H](O)[C@H](O)[C@H]1O)[C@H]1CC[C@]2(C)[C@@H]1[C@H](O)C[C@@H]1[C@@]3(C)CC[C@H](O)C(C)(C)[C@@H]3[C@@H](O[C@@H]3O[C@H](CO)[C@@H](O)[C@H](O)[C@H]3O[C@@H]3O[C@@H](C)[C@H](O)[C@@H](O)[C@H]3O)C[C@]12C` [Re, ginsenoside Re], the 50% inhibitory concentration (IC50) in data set [1], in data set [2] and in data set [3] was greater than 100 µM throughout. Moreover, the “IC50 OATP1B3” value in data set [2] (setting [4]) is “did not inhibit”.
For the compound `CC(C)=CCC[C@](C)(O)[C@H]1CC[C@]2(C)[C@@H]1[C@H](O)C[C@@H]1[C@@]3(C)CC[C@H](O[C@@H]4O[C@H](CO)[C@@H](O)[C@H](O)[C@H]4O)C(C)(C)[C@@H]3CC[C@]12C` [Rh2, ginsenoside Rh2], the IC50 in data set [1] is greater than 100 µM; in data set [2] it was 30.8 µM; in data set [3], greater than 100 µM.
Take `CC(C)=CCC[C@](C)(O)[C@H]1CC[C@]2(C)[C@@H]1[C@H](O)C[C@@H]1[C@@]3(C)CC[C@H](O)C(C)(C)[C@@H]3[C@@H](O)C[C@]12C` [PPT, protopanaxatriol]: the half-inhibitory concentration (IC50) in data set [1] (setting [5]) was greater than 100 µM; in data set [2] (setting [6]), 20.3 µM; in data set [3] (setting [7]), greater than 100 µM.
Turning to `CC(C)=CCC[C@](C)(O[C@@H]1O[C@H](CO[C@@H]2O[C@H](CO)[C@@H](O)[C@H](O)[C@H]2O)[C@@H](O)[C@H](O)[C@H]1O)[C@H]1CC[C@]2(C)[C@@H]1[C@H](O)C[C@@H]1[C@@]3(C)CC[C@H](O[C@@H]4O[C@H](CO)[C@@H](O)[C@H](O)[C@H]4O[C@@H]4O[C@H](CO)[C@@H](O)[C@H](O)[C@H]4O)C(C)(C)[C@@H]3CC[C@]12C` [Rb1, ginsenoside Rb1], the IC50 is greater than 100 µM in data set [1], 2.28 µM in data set [2] and greater than 100 µM in data set [3].
Take `CC(C)=CCC[C@](C)(O)[C@H]1CC[C@]2(C)[C@@H]1[C@H](O)C[C@@H]1[C@@]3(C)CC[C@H](O)C(C)(C)[C@@H]3[C@@H](O[C@@H]3O[C@H](CO)[C@@H](O)[C@H](O)[C@H]3O)C[C@]12C` [Rh1, ginsenoside Rh1]: the IC50 in data set [1], in data set [2] and in data set [3] was greater than 100 µM in each case. The “IC50 OATP1B3” value in data set [2] (setting [4]) is “did not inhibit”.
On to `CC(C)=CCCC(C)(O)[C@H]1CC[C@]2(C)[C@@H]1[C@H](O)C[C@@H]1[C@@]3(C)CC[C@H](O)C(C)(C)[C@@H]3CC[C@]12C` (stereo in doubt) [PPD, protopanaxadiol], for which the IC50 in data set [1] (setting [5]), in data set [2] (setting [6]) and in data set [3] (setting [7]) was greater than 100 µM each time.
For the compound `CC(C)=CCC[C@](C)(O[C@@H]1O[C@H](CO)[C@@H](O)[C@H](O)[C@H]1O)[C@H]1CC[C@]2(C)[C@@H]1[C@H](O)C[C@@H]1[C@@]3(C)CC[C@H](O)C(C)(C)[C@@H]3[C@@H](O[C@@H]3O[C@H](CO)[C@@H](O)[C@H](O)[C@H]3O)C[C@]12C` [Rg1, ginsenoside Rg1], the half-maximal inhibitory concentration (IC50) in data set [1], in data set [2] and in data set [3] was greater than 100 µM throughout. Also, the “IC50 OATP1B3” value in data set [2] (setting [4]) is “did not inhibit”.
As for `CC(C)=CCC[C@](C)(O)[C@H]1CC[C@]2(C)[C@@H]1[C@H](O)C[C@@H]1[C@@]3(C)CC[C@H](O[C@@H]4O[C@H](CO)[C@@H](O)[C@H](O)[C@H]4O[C@@H]4O[C@H](CO)[C@@H](O)[C@H](O)[C@H]4O)C(C)(C)[C@@H]3CC[C@]12C` [Rg3, ginsenoside Rg3], the IC50 was greater than 100 µM in data set [1] (setting [5]), 5.13 µM in data set [2] (setting [6]) and greater than 100 µM in data set [3] (setting [7]).
